In assay [1] the target is T1, Protein deacetylase HDAC6 (Homo sapiens, UniProt Q9UBN7).
T1 sequence (Q9UBN7 whole entry): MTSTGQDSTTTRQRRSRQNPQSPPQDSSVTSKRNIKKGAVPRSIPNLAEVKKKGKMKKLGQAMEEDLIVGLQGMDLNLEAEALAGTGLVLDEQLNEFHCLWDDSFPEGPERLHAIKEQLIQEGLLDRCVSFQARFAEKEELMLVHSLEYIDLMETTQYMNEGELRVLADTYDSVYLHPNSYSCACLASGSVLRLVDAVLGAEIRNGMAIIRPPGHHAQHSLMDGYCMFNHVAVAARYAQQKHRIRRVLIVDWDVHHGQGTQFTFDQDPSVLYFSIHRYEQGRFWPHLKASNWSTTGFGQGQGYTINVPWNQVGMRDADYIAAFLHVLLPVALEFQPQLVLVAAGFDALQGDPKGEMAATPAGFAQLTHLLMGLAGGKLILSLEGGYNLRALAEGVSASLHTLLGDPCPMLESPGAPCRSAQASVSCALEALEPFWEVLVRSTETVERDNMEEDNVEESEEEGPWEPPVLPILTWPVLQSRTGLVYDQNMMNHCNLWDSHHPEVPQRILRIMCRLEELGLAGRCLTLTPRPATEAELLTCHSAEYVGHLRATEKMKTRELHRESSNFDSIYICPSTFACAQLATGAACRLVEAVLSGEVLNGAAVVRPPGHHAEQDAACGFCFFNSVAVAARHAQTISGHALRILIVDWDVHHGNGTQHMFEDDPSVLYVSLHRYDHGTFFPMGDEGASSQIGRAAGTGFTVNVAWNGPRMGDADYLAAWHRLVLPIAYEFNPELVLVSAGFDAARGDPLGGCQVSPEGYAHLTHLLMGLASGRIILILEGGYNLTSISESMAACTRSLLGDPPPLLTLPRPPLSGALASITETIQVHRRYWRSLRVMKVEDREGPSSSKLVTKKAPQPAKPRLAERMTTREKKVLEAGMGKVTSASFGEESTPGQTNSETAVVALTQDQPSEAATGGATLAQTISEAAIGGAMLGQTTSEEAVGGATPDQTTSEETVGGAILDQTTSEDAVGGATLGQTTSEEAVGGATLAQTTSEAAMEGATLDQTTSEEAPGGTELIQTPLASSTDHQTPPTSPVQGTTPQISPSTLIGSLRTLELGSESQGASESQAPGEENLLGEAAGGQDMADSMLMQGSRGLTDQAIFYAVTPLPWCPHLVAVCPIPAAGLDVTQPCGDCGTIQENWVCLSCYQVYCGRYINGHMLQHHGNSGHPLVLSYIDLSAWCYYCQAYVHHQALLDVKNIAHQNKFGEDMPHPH
The experiment in a line: Inhibition of human recombinant HDAC6 expressed in human HEK293 cells using Ac-NH-GGK(Ac)-AMC as substrate after 180 mins by fluorescence assay.

The subject of assay [2] is A-431. Kind of assay: Cytotoxicity against human A431 cells by Alamar Blue assay. Format: functional, cell-based. (Resazurin is reduced to fluorescent resorufin, in cell work by metabolically active cells.)
For assay [3], the target named is Histone deacetylase 1 (Homo sapiens, UniProt Q13547). The experiment in a line: Inhibition of human recombinant HDAC1 expressed in human HEK293 cells using Ac-NH-GGK(Ac)-AMC as substrate after 180 mins by fluorescence assay.
For assay [4], the target named is Histone deacetylase. The experiment in a line: Inhibition of HDAC in human HeLa cells using Boc-K(Ac)-AMC as substrate preincubated for 4 hrs before substrate addition measured after 3 hrs by fluorescence assay. It is filed as cell-based.
Assay [5] relates to HeLa. Kind of assay: Cytotoxicity against human HeLa cells by Alamar Blue assay. Format: functional, cell-based.
Assay [6] has as its system SK-OV-3. The experiment in a line: Cytotoxicity against human SKOV3 cells by Alamar Blue assay. It is filed as functional, cell-based.
A short description of assay [7]: Cytotoxicity against human CAL27 cells by Alamar Blue assay. It is filed as functional, cell-based. As to conditions: CAL-27.
In assay [8] the target is Histone deacetylase (Homo sapiens) (UniProt Q13547+O15379+Q9UBN7+Q92769+Q9UQL6+Q8WUI4+Q9BY41+Q96DB2+P56524+Q9UKV0+Q969S8). The experiment in a line: Inhibition of HDAC in human HeLa cell nuclear extracts using Ac-NH-GGK(Ac)-AMC as substrate after 180 mins by fluorescence assay relative to control. Format: protein assay.
For assay [9], the target named is T2, Histone deacetylase 3 (Homo sapiens, UniProt O15379). The experiment in a line: Inhibition of human recombinant HDAC3 expressed in Sf21 insect cells using Ac-NH-GGK(Ac)-AMC as substrate after 180 mins by fluorescence assay.
Assay [10] is described as follows: Cytotoxicity against human SKBR3 cells by Alamar Blue assay. Format: functional, cell-based. Particulars: SK-BR-3.
For assay [11], the system named is A549. The experiment in a line: Cytotoxicity against human A549 cells by Alamar Blue assay. It is filed as functional, cell-based.
Assay [12] addresses Histone deacetylase. The experiment in a line: Inhibition of HDAC in human HeLa cell nuclear extracts using Ac-NH-GGK(Ac)-AMC as substrate after 180 mins by fluorescence assay. Format: protein assay.
Assay [13] has as its target T3, Histone deacetylase 8 (Homo sapiens, UniProt Q9BY41).
T3 sequence (Q9BY41 whole entry): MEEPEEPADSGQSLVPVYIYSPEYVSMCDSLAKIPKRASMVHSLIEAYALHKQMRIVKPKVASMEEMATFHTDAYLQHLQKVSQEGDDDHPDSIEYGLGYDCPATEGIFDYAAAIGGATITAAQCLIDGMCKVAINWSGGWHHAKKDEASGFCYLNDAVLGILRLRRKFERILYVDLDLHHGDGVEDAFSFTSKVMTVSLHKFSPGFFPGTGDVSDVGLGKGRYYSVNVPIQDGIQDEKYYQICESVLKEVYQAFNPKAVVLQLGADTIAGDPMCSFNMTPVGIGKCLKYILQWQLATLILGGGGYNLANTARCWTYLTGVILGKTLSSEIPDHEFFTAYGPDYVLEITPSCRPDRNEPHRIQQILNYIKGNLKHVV
Kind of assay: Inhibition of human recombinant HDAC8 expressed in Sf21 insect cells using Ac-NH-GGK(Ac)-AMC as substrate after 180 mins by fluorescence assay.

The target in assay [14] is Serine/threonine-protein kinase PLK1 (Homo sapiens, UniProt P53350). Kind of assay: Inhibition of recombinant Plk1 (unknown origin) using poly-Glu-Tyr peptide as substrate.
Assay [15] has as its target Tyrosine-protein kinase ABL1 (Homo sapiens, UniProt P00519). The experiment in a line: Inhibition of recombinant Abl1 (unknown origin) using poly-Glu-Tyr peptide as substrate.
Assay [16] deals with Epidermal growth factor receptor (Homo sapiens, UniProt P00533). The experiment in a line: Inhibition of recombinant EGFR (unknown origin) using poly-Glu-Tyr peptide as substrate.
Assay [17] concerns the target Platelet-derived growth factor receptor beta (Homo sapiens, UniProt P09619). The experiment in a line: Inhibition of recombinant PDGFRbeta (unknown origin) using poly-Glu-Tyr peptide as substrate.
Assay [18] addresses Cyclin-dependent kinase 2 (Homo sapiens, UniProt P24941). The experiment in a line: Inhibition of recombinant CDK2 (unknown origin) using poly-Glu-Tyr peptide as substrate.
Assay [19] can be described thus: Inhibition of recombinant PKA (unknown origin) using poly-Glu-Tyr peptide as substrate. Further details: species or system Homo sapiens.
Assay [20] deals with Insulin receptor (Homo sapiens, UniProt P06213). The experiment in a line: Inhibition of recombinant InsR (unknown origin) using poly-Glu-Tyr peptide as substrate.
Assay [21] deals with Receptor tyrosine-protein kinase erbB-2 (Homo sapiens, UniProt P04626). Kind of assay: Inhibition of recombinant HER2 (unknown origin) using poly-Glu-Tyr peptide as substrate.
Assay [22] has as its target T2, Histone deacetylase 3. Kind of assay: Inhibition of human recombinant HDAC3 expressed in Sf21 insect cells using Ac-NH-GGK(Ac)-AMC as substrate after 180 mins by fluorescence assay relative to control.

Sequence of Insulin receptor (P06213 28-758 limits assumed): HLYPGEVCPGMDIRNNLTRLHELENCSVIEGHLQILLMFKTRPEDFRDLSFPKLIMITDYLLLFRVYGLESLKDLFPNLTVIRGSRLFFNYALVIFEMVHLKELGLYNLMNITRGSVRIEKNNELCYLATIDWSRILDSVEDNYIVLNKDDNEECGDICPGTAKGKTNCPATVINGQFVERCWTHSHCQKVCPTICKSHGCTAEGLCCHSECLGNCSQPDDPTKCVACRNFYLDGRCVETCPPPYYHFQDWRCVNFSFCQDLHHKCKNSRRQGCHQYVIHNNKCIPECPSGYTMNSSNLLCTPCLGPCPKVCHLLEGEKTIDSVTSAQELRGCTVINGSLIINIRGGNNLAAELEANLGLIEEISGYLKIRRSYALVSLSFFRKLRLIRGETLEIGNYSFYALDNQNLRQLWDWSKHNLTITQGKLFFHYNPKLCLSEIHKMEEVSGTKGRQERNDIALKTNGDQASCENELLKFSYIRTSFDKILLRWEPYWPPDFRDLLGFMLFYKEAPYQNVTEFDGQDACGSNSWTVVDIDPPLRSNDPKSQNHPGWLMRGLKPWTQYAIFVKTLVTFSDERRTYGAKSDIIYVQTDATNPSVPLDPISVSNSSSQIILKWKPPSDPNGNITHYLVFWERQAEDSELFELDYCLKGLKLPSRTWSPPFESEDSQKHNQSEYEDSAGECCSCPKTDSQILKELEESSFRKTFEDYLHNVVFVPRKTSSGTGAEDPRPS
Sequence of Insulin receptor (P06213 763-1382 limits assumed): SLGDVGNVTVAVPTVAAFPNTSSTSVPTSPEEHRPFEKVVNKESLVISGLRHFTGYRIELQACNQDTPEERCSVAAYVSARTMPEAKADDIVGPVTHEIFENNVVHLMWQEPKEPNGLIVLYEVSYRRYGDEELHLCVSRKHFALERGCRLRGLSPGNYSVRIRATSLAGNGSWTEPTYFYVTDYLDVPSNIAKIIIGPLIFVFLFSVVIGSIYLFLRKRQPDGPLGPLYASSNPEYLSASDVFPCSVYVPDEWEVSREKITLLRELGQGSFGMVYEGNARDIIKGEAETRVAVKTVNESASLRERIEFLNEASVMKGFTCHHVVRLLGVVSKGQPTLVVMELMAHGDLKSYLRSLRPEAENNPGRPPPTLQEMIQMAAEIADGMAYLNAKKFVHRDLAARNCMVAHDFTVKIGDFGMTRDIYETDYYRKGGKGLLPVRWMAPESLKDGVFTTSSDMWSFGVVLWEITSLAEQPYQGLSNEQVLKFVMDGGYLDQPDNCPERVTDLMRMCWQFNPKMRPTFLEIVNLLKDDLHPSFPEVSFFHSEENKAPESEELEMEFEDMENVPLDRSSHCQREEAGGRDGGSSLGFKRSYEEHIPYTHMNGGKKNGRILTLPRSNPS
Sequence of Serine/threonine-protein kinase PLK1 (P53350 whole entry): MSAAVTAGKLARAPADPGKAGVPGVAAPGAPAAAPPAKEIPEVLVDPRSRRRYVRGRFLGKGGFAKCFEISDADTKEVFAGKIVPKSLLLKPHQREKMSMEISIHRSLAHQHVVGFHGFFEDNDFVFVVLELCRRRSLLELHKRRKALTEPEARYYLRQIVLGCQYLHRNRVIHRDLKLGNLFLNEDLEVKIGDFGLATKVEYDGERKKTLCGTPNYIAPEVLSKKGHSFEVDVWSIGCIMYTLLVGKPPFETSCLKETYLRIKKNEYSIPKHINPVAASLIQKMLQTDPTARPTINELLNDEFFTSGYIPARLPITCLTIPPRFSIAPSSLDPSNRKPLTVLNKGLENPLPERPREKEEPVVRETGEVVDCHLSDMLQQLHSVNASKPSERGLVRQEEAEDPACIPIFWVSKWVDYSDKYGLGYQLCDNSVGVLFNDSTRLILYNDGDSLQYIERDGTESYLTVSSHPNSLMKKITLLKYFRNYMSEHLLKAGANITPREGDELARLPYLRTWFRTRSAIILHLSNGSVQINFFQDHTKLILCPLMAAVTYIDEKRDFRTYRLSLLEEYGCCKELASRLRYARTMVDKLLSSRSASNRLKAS
Sequence of Histone deacetylase 1 (Q13547 whole entry): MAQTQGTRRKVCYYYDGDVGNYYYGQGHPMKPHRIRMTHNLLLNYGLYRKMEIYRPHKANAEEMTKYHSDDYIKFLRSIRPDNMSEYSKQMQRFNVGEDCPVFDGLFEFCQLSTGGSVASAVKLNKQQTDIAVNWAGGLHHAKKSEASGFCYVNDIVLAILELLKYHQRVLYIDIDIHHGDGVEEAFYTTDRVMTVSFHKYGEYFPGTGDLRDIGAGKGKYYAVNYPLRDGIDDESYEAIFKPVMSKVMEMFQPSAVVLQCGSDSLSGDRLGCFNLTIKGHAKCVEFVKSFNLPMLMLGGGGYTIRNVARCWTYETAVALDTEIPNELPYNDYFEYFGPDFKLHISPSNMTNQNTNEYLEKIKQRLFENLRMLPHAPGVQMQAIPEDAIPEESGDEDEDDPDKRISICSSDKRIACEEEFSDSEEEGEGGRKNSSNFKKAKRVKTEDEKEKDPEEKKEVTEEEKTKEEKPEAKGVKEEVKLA
Sequence of Tyrosine-protein kinase ABL1 (P00519 whole entry): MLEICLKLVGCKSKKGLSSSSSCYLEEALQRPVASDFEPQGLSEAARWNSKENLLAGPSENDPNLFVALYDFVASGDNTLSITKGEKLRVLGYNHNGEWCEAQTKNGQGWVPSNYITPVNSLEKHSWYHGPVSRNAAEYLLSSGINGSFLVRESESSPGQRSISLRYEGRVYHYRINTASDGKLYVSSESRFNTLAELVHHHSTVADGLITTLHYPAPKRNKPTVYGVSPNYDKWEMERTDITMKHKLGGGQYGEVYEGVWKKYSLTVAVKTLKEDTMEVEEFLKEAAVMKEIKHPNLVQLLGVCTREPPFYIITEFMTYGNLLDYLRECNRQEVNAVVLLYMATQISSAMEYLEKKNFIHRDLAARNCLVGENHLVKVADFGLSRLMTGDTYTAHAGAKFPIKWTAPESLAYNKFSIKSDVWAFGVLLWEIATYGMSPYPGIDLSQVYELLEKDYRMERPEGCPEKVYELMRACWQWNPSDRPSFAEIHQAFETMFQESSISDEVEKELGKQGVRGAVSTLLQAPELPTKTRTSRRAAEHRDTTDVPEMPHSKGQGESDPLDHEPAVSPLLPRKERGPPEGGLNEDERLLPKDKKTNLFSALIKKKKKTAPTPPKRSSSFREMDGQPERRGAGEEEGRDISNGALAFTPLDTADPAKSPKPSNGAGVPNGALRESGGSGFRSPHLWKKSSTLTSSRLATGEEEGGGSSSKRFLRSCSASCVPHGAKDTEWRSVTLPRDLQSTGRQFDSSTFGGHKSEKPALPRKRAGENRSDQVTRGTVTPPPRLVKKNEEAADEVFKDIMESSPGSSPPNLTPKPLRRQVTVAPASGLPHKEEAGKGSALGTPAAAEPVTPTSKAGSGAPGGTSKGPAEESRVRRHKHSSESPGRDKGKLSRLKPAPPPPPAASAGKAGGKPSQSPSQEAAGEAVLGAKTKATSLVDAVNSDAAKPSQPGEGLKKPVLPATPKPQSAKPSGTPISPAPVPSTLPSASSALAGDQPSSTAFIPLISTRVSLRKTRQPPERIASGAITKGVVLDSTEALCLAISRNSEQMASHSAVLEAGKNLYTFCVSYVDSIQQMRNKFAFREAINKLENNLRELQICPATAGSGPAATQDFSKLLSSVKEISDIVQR
T2 sequence (O15379 whole entry): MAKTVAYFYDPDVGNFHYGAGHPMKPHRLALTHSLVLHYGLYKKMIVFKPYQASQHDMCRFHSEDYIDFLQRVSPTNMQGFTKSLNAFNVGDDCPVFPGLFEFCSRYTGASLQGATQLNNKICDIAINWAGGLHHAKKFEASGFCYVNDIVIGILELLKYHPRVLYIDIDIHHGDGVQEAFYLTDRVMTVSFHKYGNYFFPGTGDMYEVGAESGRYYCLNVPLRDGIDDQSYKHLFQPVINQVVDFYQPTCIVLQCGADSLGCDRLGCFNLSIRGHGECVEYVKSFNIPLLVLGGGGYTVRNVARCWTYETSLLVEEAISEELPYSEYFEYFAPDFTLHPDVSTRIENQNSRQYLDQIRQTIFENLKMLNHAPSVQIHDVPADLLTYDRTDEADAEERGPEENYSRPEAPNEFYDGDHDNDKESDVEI

On to `C#Cc1cccc(Nc2ncnc3cc(NC(=O)c4ccc(C(=O)Nc5ccccc5N)nc4)ccc23)c1`, for which the IC50 (as a rule, the concentration that gives 50% inhibition) in assay [1] is more than 32 µM; in assay [2], 790 nM; in [3], 5.6 µM; in assay [4], more than 5.01 µM; in assay [5] it was 1500 nM; in assay [6], more than 50 µM. Also, the IC50 was 450 nM in assay [7]; 320 nM in assay [9]; more than 50 µM in [10]; 2100 nM in assay [11]; 0.51 µM in assay [12]; more than 32 µM in [13]. In addition, in [8], the Imax is 30%.
`C#Cc1cccc(Nc2ncnc3ccc(NC(=O)c4ccc(C(=O)Nc5ccccc5N)s4)cc23)c1`: the IC50 was more than 32 µM in [1]; more than 16000 nM in assay [2]; 8.6 µM in assay [3]; more than 15.8 µM in [4]; more than 50000 nM in assay [5]; more than 50 µM in assay [6]. Further, the IC50 in assay [7] is 410 nM; in [9], 920 nM; in assay [10], more than 50 µM; in assay [11], more than 50000 nM; in assay [12], more than 32 µM; in [13] it was more than 32 µM.
For the compound `C#Cc1cccc(Nc2ncnc3ccc(S(=O)(=O)n4ccc(/C=C/C(=O)NO)c4)cc23)c1`, the IC50 is 0.0073 µM in assay [1]; 260 nM in assay [2]; 0.0065 µM in assay [3]; more than 100 µM in assay [14]; 27 µM in assay [15]; 1200 nM in assay [16]. Moreover, the IC50 in [17] was 70 µM; in assay [18], more than 100 µM; in [19], more than 100 µM; in assay [4] it was 0.034 µM; in [5], 500 nM; in assay [6], 0.56 µM. Further, the IC50 amounted to 160 nM in assay [7]; 65 µM in [20]; 15 nM in assay [9]; 3400 nM in [21]; 0.19 µM in [10]; 240 nM in assay [11]. The IC50 in [12] is 0.0064 µM; in [13] it was 0.59 µM.
For `C#Cc1cccc(Nc2ncnc3ccc(OCc4ccc(C(=O)Nc5ccccc5N)cc4)cc23)c1`, the IC50 was more than 32 µM in [1]; 1600 nM in assay [2]; 0.041 µM in [3]; more than 100 µM in assay [14]; 7 µM in assay [15]; 78 nM in [16]. For the same compound, the IC50 in [17] was 7.2 µM; in assay [18], 13 µM; in assay [19], more than 100 µM; in assay [4], 1.85 µM; in assay [5] it was 1350 nM; in [6], 5.1 µM. Also, the IC50 in assay [7] stood at 610 nM; in assay [20] it was 36 µM; in [9], 550 nM; in assay [21], 66 nM; in assay [10] it was 3.4 µM; in assay [11] it was 900 nM. The IC50 is 0.2 µM in assay [12] and more than 32 µM in assay [13]. In assay [8], this compound displayed an Imax of 50%.
As to `C#Cc1cccc(Nc2ncnc3cc(OCCOC)c(OCCOC)cc23)c1` [ERLOTINIB], the IC50 in assay [1] was more than 32 µM; in assay [2], 2500 nM; in assay [3], more than 32 µM; in assay [19], more than 100 µM; in assay [4], more than 15.8 µM; in assay [5] it was 8300 nM. Further, the IC50 in [6] is 31 µM; in assay [7], 74 nM; in assay [9], more than 32000 nM; in [10] it was 15 µM; in assay [11], more than 50000 nM; in [12], more than 32 µM. The IC50 in assay [13] was more than 32 µM.
In the case of `Nc1ccccc1NC(=O)c1ccc(COc2ccc3ncnc(Nc4cccc(Br)c4)c3c2)cc1`, the 50% inhibitory concentration (IC50) was more than 32 µM in assay [1]; 1700 nM in assay [2]; 0.074 µM in [3]; more than 100 µM in assay [14]; 11 µM in assay [15]; 33 nM in assay [16]. The half-inhibitory concentration (IC50) is 28 µM in [17]; 22 µM in assay [18]; more than 100 µM in assay [19]; 2.46 µM in assay [4]; 1450 nM in [5]; 6.3 µM in assay [6]. The IC50 in [7] turned out to be 620 nM; in [20], 150 µM; in assay [9], 510 nM; in assay [21], 39 nM; in [10] it was 5.1 µM; in [11], 1300 nM. The results for the IC50 in assay [12] and in assay [13] were 0.25 µM and more than 32 µM, respectively. In addition, in assay [22], the Imax came out at 75%.
On to `C#Cc1cccc(Nc2ncnc3ccc(NC(=O)c4ccc(C(=O)Nc5ccccc5N)cc4)cc23)c1`, for which the IC50 in [1] is more than 32 µM; in assay [2] it was more than 16000 nM; in assay [3] it was 10.5 µM; in [4], more than 15.8 µM; in [5] it was more than 50000 nM; in [6], more than 50 µM. In addition, the IC50 in [7] was 330 nM; in assay [9], 610 nM; in [10], more than 50 µM; in [11] it was more than 50000 nM; in [12], more than 32 µM; in assay [13], more than 32 µM.

The values are drawn from ChEMBL document CHEMBL3217617 (Medchemcomm, 2012).
